How the values were obtained:
DDPAC MAPT SRE RNA = assay: Fluorescent binding affinity, DDPAC SRE RNA; conditions: inherent fluorescence, n=3
Procedure: (§1) Fluorescent Binding Affinity Measurements. Binding assays were completed as previously described.^30 Briefly, the RNA of interest was folded in 1× Assay Buffer-1 (AB1: 8 mM Na2HPO4, pH 7.0, 185 mM NaCl, and 1 mM EDTA) by heating at 95° C. for 30 s followed by slowly cooling to room temperature. Bovine serum albumin (BSA) was then added to a final concentration of 40 μg/mL to afford 1× Assay Buffer-2 (AB2: 8 mM Na2HPO4, pH 7.0, 185 mM NaCl, 1 mM EDTA, and 40 μg/mL BSA). The RNA solution was serial diluted with 1×AB2. Then, compound of interest was added to the RNA solutions to a final concentration of 0.5 μM. […] Fluorescence intensity was measured using a Tecan Plate Reader (Gain: 100, Integration time: 40 μs). […] The change in fluorescence of the small molecule was calculated by its comparison to samples lacking RNA. Binding affinity was calculated using Equation 1, as previously described:^30
(§2) where I and I0 are the measured fluorescence intensity of the compound with or without RNA, respectively, Δε is the difference between the fluorescence intensity with the infinite concentration of RNA and the fluorescence intensity without RNA, [SM]0 and [RNA]0 are the concentrations of the small molecule (SM) and RNA, respectively, and Kd is the dissociation constant.

[1] = tested on: MAPT exon 10 splicing in LAN5 cells; assay: 4R/3R endogenous MAPT mRNA by RT-qPCR in LAN5 neuroblastoma cells; format: cell-based
Procedure: RNA Isolation and Real-Time Quantitative PCR (RT-qPCR). HeLa cells were treated as described in the Luciferase Reporter assay to Study Exon 10 Alternative Splicing. LAN5 cells were seeded in 12-well plates at 0.2×10^6 cells per well, treated with compound or ASO, and incubated for 48 h. Compound stocks prepared in DMSO and ASO stocks prepared in water were diluted in growth medium and added to cells. Total RNA was extracted from cells and analyzed via RT-qPCR to determine levels of 3R and 4R tau mRNA. In brief, the cells were washed with 1×DPBS and then lysed in the well using 300 μL of Lysis Buffer provided in a Quick-RNA MiniPrep kit (Zymo Research), which was used to extract total RNA per the manufacturer's protocol including the on-column DNase I digestion. The concentration of total RNA was measured by NanoDrop 2000 (Thermo Fisher Scientific). Only samples with OD260/OD280>1.8 were carried forward for analysis. Reverse transcription (RT) was carried out on 200 ng of total RNA using a qScript cDNA synthesis kit (QuantaBio) in a total volume of 10 μL according to the manufacturer's protocol. An Applied Biosystems QS5 384-well PCR system was used to complete qPCR reactions with Power SYBR Green Master Mix (Life Technologies), 600 nM each primer (Table S3), 20 ng of cDNA (1 μL of the RT reaction), in a total volume of 33 μL. Technical triplicates (10 μL each) were aliquoted into 384-well qPCR plates (Applied biosystems, 4483285). Subsequent qPCR analysis was performed using an Applied Biosystems QS5 384-well PCR system (software v.1.3.0). 4R/3R ratio were analyzed using ΔΔCt method using Equation 2: […]
where ΔCt 4R or ΔCt 3R is the difference between the Ct values for the 4R or 3R MAPT mRNA and a housekeeping gene (18S rRNA) in total RNA from cells.

[2] = tested on: 4R and 3R tau protein in LAN5 cells; assay: 4R/3R tau protein by Western blotting in LAN5 cells; format: cell-based; conditions: LA-N-5; 2 at 1.5 μM, LAN5, 48 h; read-out: reduction of 4R/3R protein ratio
Procedure: Western Blotting. LAN5 cells were seeded in 6-well plates at 0.6×10^6 cells per well, treated with compound and incubated for 48 h. After removing the growth medium, the cells were washed with 1×DPBS and harvested by trypsinization. Total protein was extracted with Mammalian Protein Extraction Reagent (M-PER, Thermo Scientific) per the manufacturer's protocol. Protein concentrations were determined using a Pierce Micro BCA Protein Assay Kit per the manufacturer's recommended protocol. Approximately 20 μg of total protein from each biological sample was separated on a sodium dodecyl sulfate (SDS)-polyacrylamide gel (5% (w/v) polyacrylamide stacking layer; 12% (w/v) polyacrylamide separating layer), followed by transferring to a polyvinylidene fluoride (PVDF; 0.45 μm) membrane. […] After three more washes with 1×TBST for 15 min each, 4R, 3R tau protein, or B-actin were detected using SuperSignal West Pico Chemiluminescent Substrate (Pierce Biotechnology).
After imaging, the membrane was stripped with 1× Stripping Buffer (200 mM glycine with 0.1% SDS, pH 2.2) for 0.5 h at room temperature, and β-actin levels were detected as described above, except using a β-actin primary antibody (Cell Signaling Technology, 4970S; 1:5000 dilution). ImageJ software was used for the quantification of the protein bands.

WT MAPT SRE RNA = assay: Fluorescent binding affinity, WT SRE RNA
Procedure: as §1, §2

Kd (DDPAC MAPT SRE RNA): 580 ± 100 nM
higher affinity for the MAPT SRE than 1 (WT MAPT SRE RNA; 2 vs 1): ~ 6 fold
Kd (WT MAPT SRE RNA; WT RNA, inherent fluorescence, n=3): 550 ± 110 nM
SMILES: COc1cc(N)ncc1CCCN(C)CCCn1cnc2c3ccccc3n(C)c2c1=O [Compound 2, 3-(3-((3-(6-amino-4-methoxypyridin-3-yl)propyl)(methyl)amino)propyl)-5-methyl-3,5-dihydro-4H-pyrimido[5,4-b]indol-4-one]
inhibition at 1.5 µM ([1]; LA-N-5, 2 at 1.5 μM, LAN5, 48 h, RT-qPCR, read-out: reduction of 4R/3R ratio of MAPT RNA): 56 ± 4%
PSI10 (PSI of MAPT exon 10) vs vehicle ([1]; LAN5 cells): downregulated
inhibition at 1.5 µM [2]: 54 ± 9%
